Earlier results in US8642630B2, “Endogeneous repair factor production accelerators” (Ono Pharmaceutical Co., Ltd., priority 2002, dated 2014).
Structures can show the parent of a compound that is named as a salt.

Tested on: vascular endothelial cells
Settings: cited from earlier work

## CC#CCC(C)[C@H](O)/C=C/[C@@H]1[C@H]2c3cccc(CCCC(=O)O)c3O[C@H]2C[C@H]1O (mixture of isomers) [Beraprost, (±)-(1R,2R,3aS,8bS)-2,3,3a,8b-terahydro-2-hydroxy-1-[(E)-(3S,4RS)-3-hydroxy-4-methyl-1-octen-6-ynyl]-1H-cyclopenta[b]benzofuran-5-butanoic acid sodium salt]
In vitro
  endothelial cell growth action, in words: shows endothelial cell growth action
Vascular endothelial cells in vitro
  HGF production, in words: increases HGF production in vascular endothelial cells in vitro
